Source: patent US20110224079A1, “SPIROHETEROCYCLIC N-OXYAMIDES AS PESTICIDES” (SYNGENTA CROP PROTECTION LLC, priority 2008, published 2011)

How the values were obtained:
[1] = tested on: Thrips tabaci (onion thrips); experiment: Example B3: activity against Thrips tabaci, sprayed sunflower leaf discs (feeding/residual contact, preventive); format: in vivo; conditions: foliar, 144 h, mixed population, 6 days
Excerpt: Activity Against Thrips tabaci (Onion Thrips)
(Mixed Population, Feeding/Residual Contact Activity, Preventive)

[2] = tested on: Frankliniella occidentalis (western flower thrips); experiment: Example B6: activity against Frankliniella occidentalis, bean leaf discs or bean plants; format: in vivo; conditions: foliar, 6 days (leaf discs) or 14 days (plants) after infestation, read-out: activity (reduction of treated population)
Description: Activity Against Frankliniella occidentalis (Western Flower Thrips)
Bean leaf discs on agar in petri dishes or bean plants in a spray chamber are treated with diluted test solutions. After drying leaf discs are cut and placed in plastic cups on the surface of an agar layer and infested with mixed population. 6 days (leaf discs) or 14 days (plants) after the infestation, samples are checked for reduction of treated population and compared to the non treated population.

[3] = tested on: Aphis Craccivora (cowpea aphid); experiment: Example B9: activity against Aphis craccivora, sprayed pea seedlings (contact/feeding); format: in vivo; conditions: 144 h, infested pea seedlings sprayed, 6 days
Excerpt: (§1) Activity Against Aphis Craccivora (Cowpea Aphid)
(Mixed Population, Contact/Feeding)
6 days after treatment, samples are checked for mortality.

[4] = tested on: Aphis Craccivora (cowpea aphid); experiment: Example B10: activity against Aphis craccivora, pea seedling roots in test solution (systemic/feeding); format: in vivo; conditions: 144 h, roots of infested pea seedlings in test solution, 6 days
Excerpt: as §1
(Mixed Population, Systemic/Feeding)

[5] = tested on: Aphis Craccivora (cowpea aphid); experiment: Example B11: translaminar activity against Aphis craccivora on French bean leaves; format: in vivo; conditions: 120 h, upper leaf side painted, aphids on lower side, 5 days
Description: Translaminar Activity Against Aphis Craccivora (Cowpea Aphid)
French bean leaves (Phaseolus vulgaris) are infested with about 20 mixed age individuals on the lower leaf side using clip cages. 1 day after the infestation, the upper side of the leaves is treated with the test solution by painting. 5 days later, samples are checked for mortality.

[6] = tested on: Myzus persicae (green peach aphid); experiment: Example B17: activity against Myzus persicae on sprayed pepper plants (feeding/residual contact); format: in vivo; conditions: 144 h, infested pepper plants sprayed, 6 days
[7] = tested on: Myzus persicae (green peach aphid); experiment: Example B13: drench activity against Myzus persicae, pea seedlings in field soil; conditions: 168 h, read-out: drench activity (mortality)
[8] = tested on: Nilaparvata lugens (brown rice planthopper); experiment: Example B8: activity against Nilaparvata lugens, sprayed rice seedlings (larvicide, feeding/contact); conditions: in Oryza sativa, read-out: activity (mortality, growth regulation, effects on F1 generation)
[9] = tested on: Myzus persicae (green peach aphid); experiment: Example B2: activity against Myzus persicae, pea seedling roots in test solution (systemic/feeding, curative); conditions: 144 h, read-out: activity (mortality)
[10] = tested on: Myzus persicae (green peach aphid); experiment: Example B1: activity against Myzus persicae, sprayed sunflower leaf discs (feeding/residual contact, preventive); conditions: foliar, 144 h, read-out: activity (mortality)
[11] = tested on: Tetranychus urticae (two-spotted spider mite); experiment: Example B4: activity against Tetranychus urticae, sprayed bean leaf discs (feeding/residual contact, preventive); conditions: foliar, 192 h, read-out: activity (egg, larval and adult mortality)
[12] = tested on: Bemisia tabaci (tobacco white fly); experiment: Example B7: activity against Bemisia tabaci, sprayed bean plants (larvicide, contact/feeding); format: in vivo; conditions: 504 h, bean plants with N-2 nymphs sprayed, three weeks, read-out: activity (efficacy, number of emerged adults)
Description: Activity Against Bemisia tabaci (Tobacco White Fly)
(Larvicide, Contact/Feeding)
Bean plants are infested with 20-30 adults that were removed after a 4 day egg-laying period. After another 7 days, bean plants with hatched nymphs (N-2) are treated (2 replicates) with the test solutions in a spray chamber. Three weeks later, samples are checked for number of emerged adults. Efficacy was calculated by comparing number of emerged adults in treated and non treated samples.

[13] = tested on: Aonidiella Aurantii (red scale); experiment: Example B12: activity against Aonidiella aurantii, dipped potato tubers; format: in vivo; conditions: 6-8 weeks after application, read-out: activity (number of crawlers of the next generation)
Excerpt: Activity Against Aonidiella Aurantii (Red Scale)
Treatment of potato tubers by dipping the in the test solution. One day later, tubers are infested with about 50 crawlers. 6-8 weeks after application samples are checked for the number of crawlers of the next generation (compared to the non treated samples).

[14] = tested on: Plutella xylostella (diamond back moth); experiment: Example B5: activity against Plutella xylostella, artificial diet in microtiter plate (larvicide, preventive); format: in vivo; conditions: 120 h, L2 larvae, 5 days, read-out: activity (larval mortality, antifeedant, growth regulation)
Description: Activity Against Plutella xylostella (Diamond Back Moth)
(Larvicide, Feeding/Residual Contact Activity, Preventive)
24-well microtiter plate (MTP) with artificial diet is treated with test solutions by pipetting. After drying, the MTP's are infested with larvae (L2)(10-15 per well). After an incubation period of 5 days, samples are checked for larval mortality, antifeedant and growth regulation.

| Structure (SMILES) | mortality at 400 ppm [5] [%] | mortality at 25 ppm [7] [%] | mortality at 400 ppm [8] [%] | mortality at 400 ppm [9] [%] | mortality at 400 ppm [10] [%] | melting point | further results |
| --- | --- | --- | --- | --- | --- | --- | --- |
| CON1CCC2(CC1)C(O)=C(c1c(C)cc(C)cc1C)C(=O)N2OCC1CC1 [P2.13] | > 80 | > 80 | > 80 | > 80 | > 80 | – | mortality at 400 ppm [1]: > 80%; pest or weed control at 400 ppm [2]: > 80%; mortality at 400 ppm [3]: > 80%; mortality at 400 ppm [4]: > 80%; mortality at 200 ppm [6]: ≥ 80%; mortality at 400 ppm [11]: > 80% |
| CON1CCC2(CC1)C(O)=C(c1c(C)cc(C)cc1C)C(=O)N2OC [P2.7] | > 80 | > 80 | > 80 | > 80 | > 80 | – | mortality at 400 ppm [1]: > 80%; pest or weed control at 200 ppm [12]: > 80%; mortality at 400 ppm [3]: > 80%; pest or weed control at 200 ppm [13]: > 80%; mortality at 200 ppm [6]: ≥ 80% |
| C#CCON1C(=O)C(c2c(C)cc(C)cc2C)=C(O)C12CCN(OC)CC2 [P2.8, 4-Hydroxy-8-methoxy-1-prop-2-ynyloxy-3-(2,4,6-trimethyl-phenyl)-1,8-diaza-spiro[4.5]dec-3-en-2-one] | > 80 | > 80 | > 80 | > 80 | > 80 | – | pest or weed control at 200 ppm [12]: > 80%; mortality at 400 ppm [4]: > 80%; pest or weed control at 200 ppm [13]: > 80%; mortality at 200 ppm [6]: ≥ 80%; mortality at 400 ppm [11]: > 80% |
| CCOC(=O)OC1=C(c2c(C)cc(C)cc2C)C(=O)N(OCCOC)C12CCN(OC)CC2 [P1.6] | > 80 | > 80 | > 80 | > 80 | > 80 | – | pest or weed control at 200 ppm [12]: > 80%; pest or weed control at 200 ppm [13]: > 80%; mortality at 400 ppm [11]: > 80% |
| CON1CCC2(CC1)C(O)=C(c1cc(Br)c(C)cc1C)C(=O)N2OC [P2.75] | – | – | – | – | – | 86 to 87 °C | – |
| CON1CCC2(CC1)C(O)=C(c1c(C)cc(C)cc1C)C(=O)N2OCC1CCCCC1 [P2.96] | – | – | – | – | – | 169 to 172 °C | – |
| COCON1C(=O)C(c2cc(C)ccc2C)=C(OC)C12CCN(OC)CC2 [P1.31] | – | – | – | – | – | 91 to 93 °C | – |
| CCOC(=O)OC1=C(c2c(C)cc(Cl)cc2C)C(=O)N(OC)C12CCN(OC)CC2 [P1.114] | – | – | – | – | – | 122 to 125 °C | – |
| COCON1C(=O)C(c2c(C)cc(Br)cc2C)=C(O)C12CCN(OC)CC2 [P2.14, 3-(4-bromo-2,6-dimethyl-phenyl)-4-hydroxy-8-methoxy-1-methoxymethoxy-1,8-diaza-spiro[4.5]dec-3-en-2-one] | – | > 80 | > 80 | > 80 | > 80 | – | mortality at 400 ppm [1]: > 80%; pest or weed control at 200 ppm [12]: > 80%; mortality at 400 ppm [4]: > 80%; pest or weed control at 200 ppm [13]: > 80%; mortality at 400 ppm [11]: > 80% |
| COCCON1C(=O)C(c2c(C)cc(C)cc2C)=C(O)C12CCN(OC)CC2 [P2.5] | > 80 | > 80 | > 80 | > 80 | > 80 | – | pest or weed control at 200 ppm [12]: > 80%; mortality at 400 ppm [4]: > 80%; pest or weed control at 200 ppm [13]: > 80%; mortality at 400 ppm [11]: > 80% |
| CCOC(=O)OC1=C(c2c(C)cc(C)cc2C)C(=O)N(OCOCCOC)C12CCN(OC)CC2 [P1.27] | > 80 | > 80 | > 80 | > 80 | > 80 | – | pest or weed control at 400 ppm [2]: > 80%; mortality at 400 ppm [3]: > 80%; mortality at 400 ppm [4]: > 80%; mortality at 200 ppm [6]: ≥ 80%; mortality at 400 ppm [11]: > 80% |
| COCON1C(=O)C(c2c(C)cc(-c3ccc(Cl)cc3)cc2C)=C(O)C12CCN(OC)CC2 [P2.15, 3-(4′-Chloro-3,5-dimethyl-biphenyl-4-yl)-4-hydroxy-8-methoxy-1-methoxymethoxy-1,8-diaza-spiro[4.5]dec-3-en-2-one] | – | – | – | – | – | 128 °C (dec.) | – |
| COCON1C(=O)C(c2cc(C)ccc2C)=C(OC(=O)CC(C)(C)C)C12CCN(OC)CC2 [P1.5] | – | – | – | – | – | 93 to 95 °C | – |
| CCOC(=O)OC1=C(c2c(F)ccc(C)c2Cl)C(=O)N(OCOC)C12CCN(OC)CC2 [P1.61] | – | – | – | – | – | 116 to 119 °C | – |
| CON1CCC2(CC1)C(O)=C(c1c(C)cc(Cl)cc1C)C(=O)N2OC [P2.102] | – | – | – | – | – | 88 to 92 °C | – |
| COCCON1C(=O)C(c2cc(Br)c(C)cc2C)=C(O)C12CCN(OC)CC2 [P2.73] | – | – | – | – | – | 63 to 64 °C | – |
| COCON1C(=O)C(c2c(F)ccc(C)c2Cl)=C(O)C12CCN(OC)CC2 [P2.60] | – | – | – | – | – | 155 to 158 °C | – |
| C=CCON1C(=O)C(c2c(C)cc(C)cc2C)=C(OC(=O)OCC)C12CCN(OC)CC2 [P1.17] | > 80 | > 80 | > 80 | > 80 | – | – | pest or weed control at 200 ppm [12]: > 80%; mortality at 400 ppm [3]: > 80%; mortality at 400 ppm [4]: > 80%; pest or weed control at 200 ppm [13]: > 80%; mortality at 200 ppm [6]: ≥ 80%; mortality at 400 ppm [11]: > 80% |
| COCON1C(=O)C(c2c(C)cc(Cl)cc2C)=C(O)C12CCN(OC)CC2 [P2.104] | – | – | – | – | – | 176 to 178 °C | – |
| CON1CCC2(CC1)C(O)=C(c1c(C)cc(C)cc1C)C(=O)N2OCCOC1CCCCO1 (centres unmarked) [P2.22] | – | – | – | – | – | 135 to 137 °C | – |
| CON1CCC2(CC1)C(O)=C(c1c(C)cc(Cl)cc1C)C(=O)N2OC1CCCO1 (centres unmarked) [P2.105] | – | – | – | – | – | 137 to 139 °C | – |
| COCCON1C(=O)C(c2c(C)cc(Cl)cc2C)=C(O)C12CCN(OC)CC2 [P2.101] | – | – | – | – | – | 161 to 164 °C | – |
| CON1CCC2(CC1)C(O)=C(c1c(C)cc(C)cc1C)C(=O)N2OC1CCCO1 (centres unmarked) [P2.18, 4-Hydroxy-8-methoxy-1-(tetrahydro-furan-2-yloxy)-3-(2,4,6-trimethyl-phenyl)-1,8-diaza-spiro[4.5]dec-3-en-2-one] | > 80 | > 80 | > 80 | > 80 | > 80 | – | mortality at 400 ppm [1]: > 80%; pest or weed control at 200 ppm [12]: > 80%; mortality at 400 ppm [4]: > 80%; pest or weed control at 200 ppm [13]: > 80%; mortality at 200 ppm [6]: ≥ 80%; mortality at 400 ppm [11]: > 80% |
| COCON1C(=O)C(c2cc(Br)c(F)cc2C)=C(O)C12CCN(OC)CC2 [P2.89] | – | – | – | – | – | 64 to 67 °C | – |
| COCCON1C(=O)C(c2cc(Br)c(F)cc2C)=C(O)C12CCN(OC)CC2 [P2.87] | – | – | – | – | – | 71 to 74 °C | – |
| CCON1C(=O)C(c2c(C)cc(C)cc2C)=C(O)C12CCN(OC)CC2 [P2.9] | > 80 | > 80 | > 80 | > 80 | > 80 | – | pest or weed control at 400 ppm [2]: > 80%; pest or weed control at 200 ppm [12]: > 80%; mortality at 400 ppm [3]: > 80%; mortality at 400 ppm [4]: > 80%; mortality at 200 ppm [6]: ≥ 80% |
| CON1CCC2(CC1)C(O)=C(c1cc(C)c(C)cc1Cl)C(=O)N2OC1CCCO1 (centres unmarked) [P2.63] | – | – | – | – | – | – | mortality at 400 ppm [14]: > 80%; mortality at 200 ppm [6]: ≥ 80% |
